Patent US20230053540A1, “TREATMENT OF LIVER INJURY” (Massachusetts Institute of Technology, priority 2019, published 2023)

System: hepatocytes
Assay: Seq-Well scRNA-Seq of hepatocytes after APAP overdose (signature scores, DEG vs untreated)
Assay type: in vivo, mouse
[1] = cluster A6, DEG between treatment (APAP and PH)

## CC(=O)Nc1ccc(O)cc1 [APAP, acetaminophen]
[1]
  avg_logFC Tmsb4x: 0.7911
  avg_logFC Tnfrsf1a: 0.5681
  avg_logFC Tnfrsf12a: 1.105
  avg_logFC Tns1: 0.4001
  avg_logFC Tra2a: 0.7081
  avg_logFC Trp53inp1: 0.8829
  avg_logFC Tsc22d2: 0.3629
  avg_logFC Tsku: 0.3332
  avg_logFC Tsr1: 0.3392
  avg_logFC Tubb2a: 0.786
  avg_logFC Tubb6: 0.5715
  avg_logFC Txnrd1: 1.375
  avg_logFC Ugdh: 0.6085
  avg_logFC Wbp1l: 0.3897
  avg_logFC Wdr43: 0.3083
  avg_logFC Xbp1: 0.5694
  avg_logFC Ywhag: 0.5132
  avg_logFC Zyx: 0.2799
  avg_logFC mmu-mir-6240: 1.032
  avg_logFC n-R5-8s1: 0.4005
Cluster A24 (APAP, 24 h)
  avg_logFC Acly: 0.3005
  avg_logFC Arcn1: 0.2594
  avg_logFC Cltc: 0.2853
  avg_logFC Cmah: 0.2958
  avg_logFC Ctnnb1: 0.25
  avg_logFC Dnajb11: 0.2998
  avg_logFC Dnajc12: 0.2565
  avg_logFC Etnk1: 0.2761
  avg_logFC Fndc3b: 0.2502
  avg_logFC Gm26917: 0.5819
  avg_logFC Magt1: 0.253
  avg_logFC Nab1: 0.2534
  avg_logFC Nars: 0.2657
  avg_logFC Nedd4: 0.2553
  avg_logFC Ptprf: 0.2512
  avg_logFC Rab1: 0.2582
  avg_logFC Sec61b: 0.2648
  avg_logFC Srebf1: 0.2874
  avg_logFC Usp4: 0.2727
  avg_logFC Usp9x: 0.2853
Cluster A48 (APAP, 48 h)
  avg_logFC 1-Mar: 0.2986
  avg_logFC 0610005C13Rik: 0.3977
  avg_logFC 1600002H07Rik: 0.2939
  avg_logFC Abcb4: 0.4702
  avg_logFC Abcc3: 0.4075
  avg_logFC Abcd2: 0.2906
  avg_logFC Abhd14b: 0.4104
  avg_logFC Acadl1: 0.3879
  avg_logFC Acat1: 0.3773
  avg_logFC Acbd5: 0.3517
  avg_logFC Aco2: 0.3054
  avg_logFC Acot12: 0.3091
  avg_logFC Acsl1: 0.3668
  avg_logFC Agt: 0.5339
  avg_logFC Ahcy: 0.4739
  avg_logFC Ahsg: 0.2506
  avg_logFC Akr1c19: 0.3705
  avg_logFC Aldh9a1: 0.4147
  avg_logFC Aldoa: 0.2635
  avg_logFC Aldob: 0.3758
  avg_logFC Amy1: 0.495
  avg_logFC Anapc13: 0.2762
  avg_logFC Angptl3: 0.7705
  avg_logFC Apoa5: 0.4366
  avg_logFC Apoc1: 0.3638
  avg_logFC Apoc2: 0.8142
  avg_logFC Apoc3: 0.3634
  avg_logFC Apoc4: 0.5053
  avg_logFC Apoe: 0.6102
  avg_logFC Apoh: 0.5359
  avg_logFC Armc1: 0.2587
  avg_logFC Asgr2: 0.3431
  avg_logFC Aspdh: 0.326
  avg_logFC Atf5: 0.3544
  avg_logFC Atp5b: 0.3451
  avg_logFC Atp5g3: 0.3996
  avg_logFC Atp5j: 0.4575
  avg_logFC Atp5k: 0.4074
  avg_logFC Atp5h: 0.7312
  avg_logFC Azgp1: 0.2836
  avg_logFC Bfar: 0.3018
  avg_logFC Bnip3: 0.5262
  avg_logFC Brap: 0.3395
  avg_logFC Camk2n1: 0.2578
  avg_logFC Cd1d1: 0.3518
  avg_logFC Cdo1: 0.4301
  avg_logFC Cebpb: 0.4231
  avg_logFC Ces1b: 0.5308
  avg_logFC Ces1c: 0.5861
  avg_logFC Ces1f: 0.3532
  avg_logFC Ces2a: 0.3404
  avg_logFC Ces1d: 0.3324
  avg_logFC Chchd10: 0.814
  avg_logFC Cox5a: 0.4303
  avg_logFC Cox8a: 0.5202
  avg_logFC Cp: 0.2715
  avg_logFC Cpt2: 0.3214
  avg_logFC Creb3l3: 0.3228
  avg_logFC Creg1: 0.418
  avg_logFC Ctsd: 0.3237
  avg_logFC Ctsh: 0.4649
